What was measured:
Test in all cases: Bliss excess, mean over the matrix (fraction); higher = more synergy
[1] = tested on: SCC-4 (Oral Cavity Carcinoma)
Method in brief: (§1)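 Cell lines grown in DMEM/F12 or RPMI with 10% FBS were plated in 1536-well plates and held 24 hours at 37°C, 5% CO2 before 72 hours of exposure to two-drug dose matrices, with DMSO typically at 0.2%. CellTiter-Glo 2.0 luminescence gave viability, which was converted to inhibition. Vehicle wells were set to 0 and blank wells to 1. Combination Emax is the second-highest inhibition in the matrix, and Bliss excess is the observed combination effect minus the expected EA + EB − EA·EB, where EA and EB are the single-agent effects.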

[2] = tested on: BxPC-3 (Pancreatic Carcinoma)
Method in brief: as §1

[3] = tested on: COR-L88 (Small Cell Lung Carcinoma)
Method in brief: as §1

[4] = tested on: P32-ISH (Burkitt's Lymphoma)
Method in brief: as §1

NB1 (Neuroblastoma) = tested on: NB1 (Neuroblastoma)
Method in brief: as §1

IST-MEL1 (Melanoma) = tested on: IST-MEL1 (Melanoma)
Method in brief: as §1

[5] = tested on: DBTRG-05MG (Glioblastoma)
Method in brief: as §1

T47D (Breast Carcinoma) = tested on: T47D (Breast Carcinoma)
Method in brief: as §1

[6] = tested on: NAMALWA (Burkitt's Lymphoma)
Method in brief: as §1

[7] = tested on: NCI-H596 (Other Solid Carcinomas)
Method in brief: as §1

[8] = tested on: SNU-407 (Colorectal Carcinoma)
Method in brief: as §1

[9] = tested on: ZR-75-30 (Breast Carcinoma)
Method in brief: as §1

NCI-H2373 (Mesothelioma) = tested on: NCI-H2373 (Mesothelioma)
Method in brief: as §1

[10] = tested on: LCLC-103H (Non-Small Cell Lung Carcinoma)
Method in brief: as §1

[11] = tested on: HT-1080 (Other Solid Carcinomas)
Method in brief: as §1

GAK (Melanoma) = tested on: GAK (Melanoma)
Method in brief: as §1

[12] = tested on: MONO-MAC-6 (Acute Myeloid Leukemia)
Method in brief: as §1

WM35 (Melanoma) = tested on: WM35 (Melanoma)
Method in brief: as §1

[13] = tested on: PL4 (Pancreatic Carcinoma)
Method in brief: as §1

NCI-H226 (Mesothelioma) = tested on: NCI-H226 (Mesothelioma)
Method in brief: as §1

Structure (SMILES) | Bliss excess [1] | Bliss excess [2] | Bliss excess [3] | Bliss excess [4] | Bliss excess (NB1 (Neuroblastoma)) | Bliss excess (IST-MEL1 (Melanoma)) | Bliss excess [5] | Bliss excess (T47D (Breast Carcinoma)) | Bliss excess [6] | Bliss excess [7] | Bliss excess [8] | Bliss excess [9] | Bliss excess (NCI-H2373 (Mesothelioma)) | Bliss excess [10] | Bliss excess [11] | Bliss excess (GAK (Melanoma)) | Bliss excess [12] | Bliss excess (WM35 (Melanoma)) | Bliss excess [13] | Bliss excess (NCI-H226 (Mesothelioma))
Cn1cnc2c(F)c(Nc3ccc(Br)cc3Cl)c(C(=O)NOCCO)cc21 [Selumetinib] + CCN(CCO)CCCOc1ccc2c(Nc3cc(CC(=O)Nc4cccc(F)c4)[nH]n3)ncnc2c1 [AZD2811] (first compound max 10 µM, 7x7, partner max 1 µM) | 0.0003 | -0.057 | 0.0014 | -0.0479 | -0.0138 | -0.0203 | 0.016 | -0.0735 | 0.0244 | -0.035 | -0.0522 | -0.0544 | -0.0082 | -0.0104 | -0.0315 | -0.069 | 0.003 | -0.0566 | 0.0097 | -0.0364
COc1cc2ncnc(Nc3ccc(F)c(Cl)c3)c2cc1OCCCN1CCOCC1 [Gefitinib] + CC(C)n1c(=O)n(C)c2cnc3cc(F)c(-c4ccc(OCCCN5CCCCC5)nc4)cc3c21 [AZD1390] (first compound max 10 µM, 7x7, partner max 0.3 µM) | -0.059 | -0.0692 | -0.0652 | -0.0116 | -0.0419 | -0.0684 | -0.0482 | -0.0438 | -0.0355 | -0.0474 | -0.0783 | -0.0587 | -0.0751 | -0.0119 | -0.0548 | -0.0656 | -0.0545 | -0.0641 | -0.055 | -0.0661
NC1(C(=O)N[C@@H](CCO)c2ccc(Cl)cc2)CCN(c2ncnc3[nH]ccc23)CC1 [Capivasertib] + CC(=O)c1c(C)c2cnc(Nc3ccc(N4CCNCC4)cn3)nc2n(C2CCCC2)c1=O [Palbociclib] (first compound max 10 µM, 7x7, partner max 10 µM) | -0.007 | -0.0396 | -0.0113 | 0.0066 | -0.0201 | -0.0106 | -0.0072 | -0.0115 | 0.0053 | -0.0856 | -0.0267 | -0.0173 | -0.0016 | -0.0146 | -0.0779 | 0.0095 | 0.0034 | 0.01 | -0.0323 | -0.0792
COc1nnc2ccc(N3CCC(c4ccc(OCCN5CCN(C)C(=O)[C@H]5C)cc4)CC3)nn12 [AZD5153] + CCN(CCO)CCCOc1ccc2c(Nc3cc(CC(=O)Nc4cccc(F)c4)[nH]n3)ncnc2c1 [AZD2811] (first compound max 1 µM, 7x7, partner max 1 µM) | -0.109 | -0.0244 | -0.0231 | -0.0959 | -0.0071 | -0.0196 | -0.0036 | -0.0182 | -0.0493 | -0.0612 | -0.0476 | -0.0008 | -0.0642 | -0.0104 | 0.0036 | -0.0273 | 0.0519 | -0.016 | -0.0333 | -0.0697
Cc1c2c(nn1C)CSCc1cc(n(C)n1)CSc1cc(c3ccccc3c1)OCCCc1c(C(=O)O)n(C)c3c-2c(Cl)ccc13 [AZD5991] + C[C@@H](Nc1cc(F)cc(F)c1)c1cc(C(=O)N(C)C)cc2c(=O)cc(N3CCOCC3)oc12 [AZD8186] (first compound max 1 µM, 7x7, partner max 3 µM) | 0.0116 | -0.0059 | -0.0524 | 0.0273 | -0.0275 | -0.0184 | 0.0008 | -0.0323 | 0.0021 | – | -0.0139 | 0.0179 | -0.0288 | 0.0125 | -0.0338 | 0.0257 | 0.0143 | 0.0064 | 0.0356 | -0.0268
CCc1c2c(nc3ccc(O)cc13)-c1cc3c(c(=O)n1C2)COC(=O)[C@]3(O)CC [SN-38] + O=C(c1cc(Cc2n[nH]c(=O)c3ccccc23)ccc1F)N1CCN(C(=O)C2CC2)CC1 [Olaparib] (first compound max 0.3 µM, 7x7, partner max 10 µM) | 0.0071 | -0.005 | 0.0785 | 0.0645 | – | 0.0125 | 0.0015 | 0.0623 | 0.0571 | – | – | -0.0169 | -0.0716 | 0.0352 | 0.0978 | 0.0227 | 0.141 | 0.0733 | 0.0386 | -0.0493
Cc1c2c(nn1C)CSCc1cc(n(C)n1)CSc1cc(c3ccccc3c1)OCCCc1c(C(=O)O)n(C)c3c-2c(Cl)ccc13 [AZD5991] + CCN(CCO)CCCOc1ccc2c(Nc3cc(CC(=O)Nc4cccc(F)c4)[nH]n3)ncnc2c1 [AZD2811] (first compound max 1 µM, 7x7, partner max 1 µM) | 0.0408 | 0.0412 | 0.0453 | -0.0194 | 0.0095 | 0.0931 | 0.019 | -0.0096 | 0.089 | -0.102 | -0.034 | 0.0825 | -0.0088 | -0.0421 | 0.0096 | – | 0.0258 | 0.0333 | 0.0467 | 0.0097
CC(=O)c1c(C)c2cnc(Nc3ccc(N4CCNCC4)cn3)nc2n(C2CCCC2)c1=O [Palbociclib] + CN(CC[C@H](CSC1=CC=CC=C1)NC2=C(C=C(C=C2)S(=O)(=O)NC(=O)C3=CC=C(C=C3)N4CCC(CC4)[C@H](C5=CC=CC=C5C6=CC=C(C=C6)Cl)O)S(=O)(=O)C(F)(F)F)CCO [AZD4320] (first compound max 10 µM, 7x7, partner max 1 µM) | – | – | – | 0.0075 | -0.0677 | – | -0.119 | -0.0628 | – | -0.0578 | -0.0556 | – | -0.0794 | – | -0.121 | – | – | -0.114 | -0.0826 | –
COc1nnc2ccc(N3CCC(c4ccc(OCCN5CCN(C)C(=O)[C@H]5C)cc4)CC3)nn12 [AZD5153] + CN(CC[C@H](CSC1=CC=CC=C1)NC2=C(C=C(C=C2)S(=O)(=O)NC(=O)C3=CC=C(C=C3)N4CCC(CC4)[C@H](C5=CC=CC=C5C6=CC=C(C=C6)Cl)O)S(=O)(=O)C(F)(F)F)CCO [AZD4320] (first compound max 1 µM, 7x7, partner max 1 µM) | – | – | – | -0.0595 | 0.0126 | – | -0.0517 | 0.055 | – | 0.0028 | 0.0156 | – | 0.0157 | – | -0.0277 | – | – | 0.0983 | 0.0732 | –
C=CCn1c(=O)c2cnc(Nc3ccc(N4CCN(C)CC4)cc3)nc2n1-c1cccc(C(C)(C)O)n1 [AZD1775] + C1CN(CCC1(C(=O)N[C@@H](CCO)C2=CC=C(C=C2)Cl)N)C3=NC=NC4=C3C=CN4 [Capivasertib] (first compound max 3 µM, partner max 3 µM) | -0.0273 | -0.0227 | -0.0949 | 0.0417 | -0.0592 | – | 0.005 | -0.031 | 0.0603 | -0.0987 | -0.027 | -0.0501 | -0.0393 | -0.0462 | -0.0086 | -0.0395 | 0.031 | – | -0.0549 | -0.0662
Cc1c2c(nn1C)CSCc1cc(n(C)n1)CSc1cc(c3ccccc3c1)OCCCc1c(C(=O)O)n(C)c3c-2c(Cl)ccc13 [AZD5991] + Cn1cnc2c(F)c(Nc3ccc(Br)cc3Cl)c(C(=O)NOCCO)cc21 [Selumetinib] (first compound max 1 µM, 7x7, partner max 3 µM) | 0.0478 | 0.0457 | -0.0114 | 0.0025 | -0.0181 | – | 0.0307 | -0.0092 | -0.0172 | -0.0098 | 0.0342 | -0.0609 | -0.0345 | -0.0774 | 0.0108 | -0.0093 | 0.0117 | 0.0794 | -0.0325 | -0.0684
Cc1nc(Nc2ncc(C(=O)Nc3c(C)cccc3Cl)s2)cc(N2CCN(CCO)CC2)n1 [Dasatinib] + CC(=O)Nc1cccc(-n2c(=O)n(C3CC3)c(=O)c3c(Nc4ccc(I)cc4F)n(C)c(=O)c(C)c32)c1 [Trametinib] (first compound max 2 µM, 7x7, partner max 1 µM) | -0.0042 | 0.0009 | -0.0239 | 0.0545 | -0.0502 | – | 0.0499 | -0.0855 | -0.0039 | -0.0018 | 0.0332 | -0.0511 | -0.0756 | 0.0201 | 0.0472 | -0.0624 | -0.0052 | -0.0182 | -0.0056 | 0.027
C[C@@H](c1ccc2nccn2c1)n1nnc2ncc(-c3cnn(C)c3)nc21 [Savolitinib] + CN(CC[C@H](CSC1=CC=CC=C1)NC2=C(C=C(C=C2)S(=O)(=O)NC(=O)C3=CC=C(C=C3)N4CCC(CC4)[C@H](C5=CC=CC=C5C6=CC=C(C=C6)Cl)O)S(=O)(=O)C(F)(F)F)CCO [AZD4320] (first compound max 1 µM, 7x7, partner max 1 µM) | – | – | – | -0.022 | -0.0318 | – | -0.0262 | 0 | – | -0.018 | -0.319 | – | -0.0681 | – | -0.0522 | – | – | -0.051 | -0.0801 | –

From the supplement of paper PMC11061612
